# Test results as given in US20170232083A1, “METHODS OF DIAGNOSIS AND TREATMENT OF CELIAC DISEASE IN CHILDREN” (priority 2014, published 2017).
# System: PBMC (polyclonal gluten-specific T cells) of paediatric and adult CD patients
# Experiment: IFN-γ ELISpot of PBMC after 3 day oral wheat challenge (SFU, % of maximal peptide response, dominance scores, EC50; Examples 5-6)
# Format: cell-based, human
# Conditions: for IFN-γ ELISpot response: after oral wheat challenge; for Cross-reactive T cell response: following wheat challenge
# [1] = patient A, 11-17 yrs, cut-off 10 SFU
# [2] = patient E, H, 11-17 yrs, cut-off 10 SFU
# [3] = patient F, 11-17 yrs, cut-off 10 SFU
# [4] = patient G, 11-17 yrs, cut-off 10 SFU
# [5] = patient H (HLA-DQ2.5 homozygote), 3-5yrs, cut-off 10 SFU
# [6] = patient H, 11-17 yrs, cut-off 10 SFU
# [7] = patient ID not given, 11-17 yrs, cut-off 10 SFU
# [8] = patient N, 3-5yrs, cut-off 10 SFU
# [9] = patient P, 11-17 yrs, cut-off 21.6 SFU
# [10] = patient Q, 11-17 yrs, cut-off 10 SFU
# [11] = patient U, H, 11-17 yrs, cut-off 10 SFU
# [12] = patient V, 6-10 yrs, cut-off 10 SFU
# [13] = patient Y, 6-10 yrs, cut-off 10 SFU
# [14] = patient eleven, 6-10 yrs, cut-off 10 SFU
# [15] = patient four, 3-5yrs, cut-off 10 SFU
# [16] = patient seven, 6-10 yrs, cut-off 10.5 SFU
# [17] = patient seven, max peptide 27 SFU
# [18] = patient ten, 3-5yrs, cut-off 10 SFU
# [19] = patient three, 6-10 yrs, cut-off 10.5 SFU
# [20] = patient twelve, 11-17 yrs, cut-off 10 SFU
# [21] = patient two, 3-5yrs, cut-off 10 SFU
# [22] = subject I (3-5yrs/6-10yrs part)
# [23] = subject J (3-5yrs/6-10yrs part)
# [24] = subject K (3-5yrs/6-10yrs part)
# [25] = subject V (3-5yrs/6-10yrs part)
# [26] = subject W (3-5yrs/6-10yrs part)
# [27] = subject Y (3-5yrs/6-10yrs part)
# [28] = subject five (3-5yrs/6-10yrs part)
# [29] = subject seven (3-5yrs/6-10yrs part)
# [30] = subject six (3-5yrs/6-10yrs part)
# [31] = subject ten (3-5yrs/6-10yrs part)
# [32] = subject two (3-5yrs/6-10yrs part)
substance,measurement,setting,value
FPQPEQEFPQPQQ,IFN-γ ELISpot response,[1],6 SFU
same,IFN-γ ELISpot response,[2],49 SFU
same,Significant response as percentage of maximal peptide SFU,"patient E, max peptide 224 SFU",′′ (21-40% = ′′)
same,IFN-γ ELISpot response,[3],21 SFU
same,Significant response as percentage of maximal peptide SFU,"patient F, max peptide 178 SFU",′ (11-20% = ′)
same,IFN-γ ELISpot response,[4],4 SFU
same,IFN-γ ELISpot response,[5],13 SFU
same,IFN-γ ELISpot response,[6],9 SFU
same,IFN-γ ELISpot response,[7],26 SFU
same,Significant response as percentage of maximal peptide SFU,"patient ID not given, max peptide 95 SFU",′′ (21-40% = ′′)
same,Significant response as percentage of maximal peptide SFU,"patient II, max peptide 15 SFU",+ (>70% = +)
same,Significant response as percentage of maximal peptide SFU,"patient J, max peptide 196 SFU",+ (>70% = +)
same,Significant response as percentage of maximal peptide SFU,"patient K, max peptide 53 SFU",′′′ (41-70% = ′′′)
same,Significant response as percentage of maximal peptide SFU,"patient M, max peptide 48 SFU",′′ (21-40% = ′′)
same,IFN-γ ELISpot response,[8],3 SFU
same,IFN-γ ELISpot response,[9],11 SFU
same,IFN-γ ELISpot response,[10],27 SFU
same,Significant response as percentage of maximal peptide SFU,"patient Q, max peptide 97 SFU",′′ (21-40% = ′′)
same,IFN-γ ELISpot response,[11],15 SFU
same,Significant response as percentage of maximal peptide SFU,"patient U, max peptide 81 SFU",′ (11-20% = ′)
same,IFN-γ ELISpot response,[12],9 SFU
same,IFN-γ ELISpot response,[13],3 SFU
same,IFN-γ ELISpot response,[14],1 SFU
same,Significant response as percentage of maximal peptide SFU,"patient five, max peptide 48 SFU",′′ (21-40% = ′′)
same,IFN-γ ELISpot response,[15],10 SFU
same,Significant response as percentage of maximal peptide SFU,"patient four, max peptide 44 SFU",′′ (21-40% = ′′)
same,IFN-γ ELISpot response,[16],11 SFU
same,Significant response as percentage of maximal peptide SFU,[17],′′′ (41-70% = ′′′)
same,IFN-γ ELISpot response,[18],5 SFU
same,IFN-γ ELISpot response,[19],158 SFU
same,IFN-γ ELISpot response,[20],7 SFU
same,IFN-γ ELISpot response,[21],13 SFU
same,Significant response as percentage of maximal peptide SFU,"patient two, max peptide 60 SFU",′ (11-20% = ′)
GLERPWQEQPLPPQ,IFN-γ ELISpot response,[1],4 SFU
same,IFN-γ ELISpot response,[2],0 SFU
same,IFN-γ ELISpot response,[3],0 SFU
same,IFN-γ ELISpot response,[4],0 SFU
same,IFN-γ ELISpot response,[5],0 SFU
same,IFN-γ ELISpot response,[6],16 SFU
same,Significant response as percentage of maximal peptide SFU,"patient H, max peptide 17 SFU",+ (>70% = +)
same,IFN-γ ELISpot response,[7],1 SFU
same,IFN-γ ELISpot response,[8],0 SFU
same,IFN-γ ELISpot response,[9],7 SFU
same,IFN-γ ELISpot response,[10],22 SFU
same,Significant response as percentage of maximal peptide SFU,"patient Q, max peptide 97 SFU",′′ (21-40% = ′′)
same,IFN-γ ELISpot response,[11],1 SFU
same,IFN-γ ELISpot response,[12],7 SFU
same,IFN-γ ELISpot response,[13],9 SFU
same,IFN-γ ELISpot response,[14],1 SFU
same,IFN-γ ELISpot response,[15],6 SFU
same,IFN-γ ELISpot response,[16],11 SFU
same,Significant response as percentage of maximal peptide SFU,[17],′′′ (41-70% = ′′′)
same,IFN-γ ELISpot response,[18],5 SFU
same,IFN-γ ELISpot response,[19],3 SFU
same,IFN-γ ELISpot response,[20],2 SFU
same,IFN-γ ELISpot response,[21],1 SFU
QPFPQPEQPFPLQ,Cross-reactive T cell response,"subject A, 11-17yrs",5 SFU
same,Significant response as a percentage of maximal peptide SFU,"subject D, 11-17yrs",′′′ (41-70% = ′′′)
same,Cross-reactive T cell response,"subject D, 11-17yrs",16 SFU
same,Significant response as a percentage of maximal peptide SFU,"subject E, 11-17yrs",′′ (21-40% = ′′)
same,Cross-reactive T cell response,"subject E, 11-17yrs",70 SFU
same,Significant response as a percentage of maximal peptide SFU,"subject F, 11-17yrs",′′ (21-40% = ′′)
same,Cross-reactive T cell response,"subject F, 11-17yrs",64 SFU
same,Significant response as a percentage of maximal peptide SFU,"subject G, 11-17yrs",′′′ (41-70% = ′′′)
same,Cross-reactive T cell response,"subject G, 11-17yrs",10 SFU
same,Cross-reactive T cell response,subject H,4 SFU
same,Significant response as a percentage of maximal peptide SFU,subject I,+ (>70% = +)
same,Cross-reactive T cell response,[22],13 SFU
same,Significant response as a percentage of maximal peptide SFU,subject J,′′′ (41-70% = ′′′)
same,Cross-reactive T cell response,[23],88 SFU
same,Significant response as a percentage of maximal peptide SFU,subject K,′′′ (41-70% = ′′′)
same,Cross-reactive T cell response,[24],29 SFU
same,Cross-reactive T cell response,"subject P, 11-17yrs",21 SFU
same,Significant response as a percentage of maximal peptide SFU,"subject Q, 11-17yrs",+ (>70% = +)
same,Cross-reactive T cell response,"subject Q, 11-17yrs",83 SFU
same,Significant response as a percentage of maximal peptide SFU,"subject T, 11-17yrs",+ (>70% = +)
same,Cross-reactive T cell response,"subject T, 11-17yrs",94 SFU
same,Significant response as a percentage of maximal peptide SFU,"subject U, 11-17yrs",′′ (21-40% = ′′)
same,Cross-reactive T cell response,"subject U, 11-17yrs",18 SFU
same,Significant response as a percentage of maximal peptide SFU,subject V,′′′ (41-70% = ′′′)
same,Cross-reactive T cell response,[25],22 SFU
same,Cross-reactive T cell response,[26],8 SFU
same,Cross-reactive T cell response,[27],9 SFU
same,Significant response as a percentage of maximal peptide SFU,subject five,+ (>70% = +)
same,Cross-reactive T cell response,[28],45 SFU
same,Cross-reactive T cell response,"subject nine, 11-17yrs",0 SFU
same,Cross-reactive T cell response,[29],6 SFU
same,Significant response as a percentage of maximal peptide SFU,subject six,+ (>70% = +)
same,Cross-reactive T cell response,[30],12 SFU
same,Significant response as a percentage of maximal peptide SFU,subject ten,+ (>70% = +)
same,Cross-reactive T cell response,[31],13 SFU
same,Significant response as a percentage of maximal peptide SFU,subject two,+ (>70% = +)
same,Cross-reactive T cell response,[32],65 SFU
PEQPFPEQPQPYPQQP,Cross-reactive T cell response,"subject A, 11-17yrs",2 SFU
same,Cross-reactive T cell response,"subject D, 11-17yrs",2 SFU
same,Significant response as a percentage of maximal peptide SFU,"subject E, 11-17yrs",(6-10% - ^)
same,Cross-reactive T cell response,"subject E, 11-17yrs",13 SFU
same,Cross-reactive T cell response,"subject F, 11-17yrs",6 SFU
same,Cross-reactive T cell response,"subject G, 11-17yrs",2 SFU
same,Cross-reactive T cell response,subject H,6 SFU
same,Cross-reactive T cell response,[22],2 SFU
same,Significant response as a percentage of maximal peptide SFU,subject J,′ (11-20% = ′)
same,Cross-reactive T cell response,[23],36 SFU
same,Cross-reactive T cell response,[24],6 SFU
same,Cross-reactive T cell response,"subject P, 11-17yrs",10 SFU
same,Cross-reactive T cell response,"subject Q, 11-17yrs",2 SFU
same,Cross-reactive T cell response,"subject T, 11-17yrs",0 SFU
same,Cross-reactive T cell response,"subject U, 11-17yrs",1 SFU
same,Cross-reactive T cell response,[25],1 SFU
same,Cross-reactive T cell response,[26],9 SFU
same,Cross-reactive T cell response,[27],1 SFU
same,Cross-reactive T cell response,[28],1 SFU
same,Cross-reactive T cell response,"subject nine, 11-17yrs",1 SFU
same,Cross-reactive T cell response,[29],4 SFU
same,Cross-reactive T cell response,[30],5 SFU
same,Significant response as a percentage of maximal peptide SFU,subject ten,+ (>70% = +)
same,Cross-reactive T cell response,[31],12 SFU
same,Cross-reactive T cell response,[32],1 SFU
W09 (PQPFLPELPYPQP) [Peptide W09],Dominance score 3-5yrs (n = 9),"CD children 3-5yrs, n = 9, following wheat challenge, mean percentage of maximal peptide response",30.7
same,Dominance score 6-10yrs (n = 10),"CD children 6-10yrs, n = 10, following wheat challenge, mean percentage of maximal peptide response",28.6
same,Dominance score 11-18yrs (n = 11),"CD children 11-18yrs, n = 11, following wheat challenge, mean percentage of maximal peptide response",19.1
same,Dominance score Mean all ages,"CD children, all ages, following wheat challenge (Table 9)",25.2
GQSGYYPTSPQQS,IFN-γ ELISpot response,[1],5 SFU
same,IFN-γ ELISpot response,[2],0 SFU
same,IFN-γ ELISpot response,[3],10 SFU
same,Significant response as percentage of maximal peptide SFU,"patient F, max peptide 178 SFU",(6-10% = ^)
same,IFN-γ ELISpot response,[4],1 SFU
same,IFN-γ ELISpot response,[5],2 SFU
same,IFN-γ ELISpot response,[6],4 SFU
same,IFN-γ ELISpot response,[7],1 SFU
same,Significant response as percentage of maximal peptide SFU,"patient II, max peptide 15 SFU",+ (>70% = +)
same,IFN-γ ELISpot response,[8],0 SFU
same,IFN-γ ELISpot response,[9],10 SFU
same,IFN-γ ELISpot response,[10],5 SFU
same,IFN-γ ELISpot response,[11],4 SFU
same,IFN-γ ELISpot response,[12],3 SFU
same,IFN-γ ELISpot response,[13],0 SFU
same,IFN-γ ELISpot response,[14],4 SFU
same,IFN-γ ELISpot response,[15],3 SFU
same,IFN-γ ELISpot response,[16],11 SFU
same,Significant response as percentage of maximal peptide SFU,[17],′′′ (41-70% = ′′′)
same,IFN-γ ELISpot response,[18],5 SFU
same,IFN-γ ELISpot response,[19],6 SFU
same,IFN-γ ELISpot response,[20],2 SFU
same,IFN-γ ELISpot response,[21],2 SFU
